Measurements taken from PubChem BioAssay AID248 (DTP/NCI, 2004).
Several values for one entry are separate records, joined by “and”; a condition that tells them apart may be missing. Equal values may be shown once. Inconclusive results and toxic doses are left out. No stated cut-off is given here; in the data, active means T/C of 150% or more; inactive means T/C below 125%.

Test system: L1210 leukemia ip in BDF1 mice, survival T/C
Assay: NCI In Vivo Anticancer Drug Screen. Data for tumor model L1210 Leukemia (intraperitoneal) in B6D2F1 (BDF1) mice
Conditions: endpoint: mean survival time, higher = longer survival
Summary of the method: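 Each compound was tested against a transplantable tumor grown in mice. The endpoint was survival, with treated animals benchmarked against vehicle controls as a simple ratio.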

[1] = dose: 100.0 mg/kg/injection, schedule: Q01DX001 (ip), vehicle: saline
[2] = dose: 200.0 mg/kg/injection, schedule: Q01DX001 (ip), vehicle: saline
[3] = dose: 400.0 mg/kg/injection, schedule: Q01DX001 (ip), vehicle: saline
[4] = dose: 100.0 mg/kg/injection, schedule: Q01DX009 (ip), vehicle: saline with Tween-80
[5] = dose: 200.0 mg/kg/injection, schedule: Q01DX009 (ip), vehicle: saline with Tween-80
[6] = dose: 50.0 mg/kg/injection, schedule: Q01DX009 (ip), vehicle: saline with Tween-80
[7] = dose: 100.0 mg/kg/injection, schedule: Q04DX003 (ip), vehicle: Klucel (hydroxypropylcellulose) (HPC)
[8] = dose: 200.0 mg/kg/injection, schedule: Q04DX003 (ip), vehicle: Klucel (hydroxypropylcellulose) (HPC)
[9] = dose: 400.0 mg/kg/injection, schedule: Q04DX003 (ip), vehicle: Klucel (hydroxypropylcellulose) (HPC)
[10] = dose: 100.0 mg/kg/injection, schedule: Q01DX001 (ip), vehicle: carboxymethylcellulose (CMC)
[11] = dose: 200.0 mg/kg/injection, schedule: Q01DX001 (ip), vehicle: carboxymethylcellulose (CMC)
[12] = dose: 400.0 mg/kg/injection, schedule: Q01DX001 (ip), vehicle: carboxymethylcellulose (CMC)

Measured: T/C

[C-]1=CC2C=CC1C1[C-]=CC21.[Cl][Pd][Cl] (stereo not given)
inactive: dose: 3.13 mg/kg/injection, schedule: Q01DX009 (ip), vehicle: saline with Tween-80 103 % of control | dose: 6.25 mg/kg/injection, schedule: Q01DX009 (ip), vehicle: saline with Tween-80 98 % of control | dose: 12.5 mg/kg/injection, schedule: Q01DX009 (ip), vehicle: saline with Tween-80 100 % of control

COc1cc(C=O)ccc1OC(=O)Nc1ccc(F)c([N+](=O)[O-])c1
inactive: dose: 25.0 mg/kg/injection, schedule: Q01DX009 (ip), vehicle: other 97 % of control | dose: 50.0 mg/kg/injection, schedule: Q01DX009 (ip), vehicle: other 92 % of control | dose: 100.0 mg/kg/injection, schedule: Q01DX009 (ip), vehicle: other 97 % of control and 98 % of control

CCCCC(=O)N/N=C\c1ccc2c(c1)OCO2
inactive: [1] 94 % of control | [2] 105 % of control | [3] 91 % of control

Cc1ccc(N2C(=O)C=CC2=O)cc1
inactive: dose: 100.0 mg/kg/injection, schedule: Q04DX003 (ip), vehicle: acetone 97 % of control | dose: 200.0 mg/kg/injection, schedule: Q04DX003 (ip), vehicle: acetone 92 % of control | dose: 400.0 mg/kg/injection, schedule: Q04DX003 (ip), vehicle: acetone 86 % of control

CC(=O)OCCC#CCCCO
inactive: [4] 90 % of control | [5] 98 % of control | dose: 400.0 mg/kg/injection, schedule: Q01DX009 (ip), vehicle: saline with Tween-80 97 % of control

[O-]/[N+](C/[N+]([O-])=N\OCCCl)=N\OCCCl
inactive: dose: 100.0 mg/kg/injection, schedule: Q01DX001 (ip), vehicle: Klucel (hydroxypropylcellulose) (HPC) 91 % of control | dose: 200.0 mg/kg/injection, schedule: Q01DX001 (ip), vehicle: Klucel (hydroxypropylcellulose) (HPC) 91 % of control | dose: 400.0 mg/kg/injection, schedule: Q01DX001 (ip), vehicle: Klucel (hydroxypropylcellulose) (HPC) 91 % of control

CC(C)=Nc1cccc(B(O)O)c1
inactive: [1] 98 % of control | [2] 88 % of control | [3] 95 % of control

CCC(O)C[As](=O)(O)c1cccc(Cl)c1 (stereo not given)
inactive: dose: 0.78 mg/kg/injection, schedule: Q04DX002 (ip), vehicle: saline 106 % of control | dose: 0.78 mg/kg/injection, schedule: Q04DX003 (ip), vehicle: saline with Tween-80 92 % of control | dose: 1.56 mg/kg/injection, schedule: Q01DX001 (ip), vehicle: saline 96 % of control | dose: 1.56 mg/kg/injection, schedule: Q04DX002 (ip), vehicle: saline 101 % of control | dose: 1.56 mg/kg/injection, schedule: Q04DX003 (ip), vehicle: saline with Tween-80 94 % of control | dose: 3.13 mg/kg/injection, schedule: Q01DX001 (ip), vehicle: saline 100 % of control | dose: 3.13 mg/kg/injection, schedule: Q04DX002 (ip), vehicle: saline 105 % of control | dose: 3.13 mg/kg/injection, schedule: Q04DX003 (ip), vehicle: saline with Tween-80 95 % of control | dose: 6.25 mg/kg/injection, schedule: Q01DX001 (ip), vehicle: saline with Tween-80 120 % of control | dose: 6.25 mg/kg/injection, schedule: Q01DX001 (ip), vehicle: saline 91 % of control | dose: 6.25 mg/kg/injection, schedule: Q04DX002 (ip), vehicle: saline 97 % of control | dose: 6.25 mg/kg/injection, schedule: Q04DX003 (ip), vehicle: saline with Tween-80 92 % of control

O=C(OCc1ccccc1CN1CCCCC1)c1ccccc1
inactive: dose: 25.0 mg/kg/injection, schedule: Q04DX002 (ip), vehicle: Klucel (hydroxypropylcellulose) (HPC) 97 % of control | dose: 50.0 mg/kg/injection, schedule: Q04DX002 (ip), vehicle: Klucel (hydroxypropylcellulose) (HPC) 101 % of control | dose: 100.0 mg/kg/injection, schedule: Q04DX002 (ip), vehicle: Klucel (hydroxypropylcellulose) (HPC) 97 % of control

O=C(NO)Oc1cccc2ccccc12
inactive: dose: 25.0 mg/kg/injection, schedule: Q04DX002 (ip), vehicle: saline with Tween-80 105 % of control | dose: 50.0 mg/kg/injection, schedule: Q04DX002 (ip), vehicle: saline with Tween-80 119 % of control | dose: 100.0 mg/kg/injection, schedule: Q04DX002 (ip), vehicle: saline with Tween-80 89 % of control

O=C1OC(=O)c2c1cccc2[N+](=O)[O-]
inactive: dose: 25.0 mg/kg/injection, schedule: Q01DX009 (ip), vehicle: saline with Tween-80 97 % of control | [6] 90 % of control | [4] 94 % of control and 88 % of control

CC(=O)c1ccccc1O.CO.CO.[Cl][Nb][Cl]
inactive: dose: 75.0 mg/kg/injection, schedule: Q01DX001 (ip), vehicle: saline 93 % of control | dose: 150.0 mg/kg/injection, schedule: Q01DX001 (ip), vehicle: saline 90 % of control | dose: 300.0 mg/kg/injection, schedule: Q01DX001 (ip), vehicle: saline 90 % of control

COC1OC(CNCCO)C2OC(C)(C)OC12 (stereo not given)
inactive: dose: 100.0 mg/kg/injection, schedule: Q01DX009 (ip), vehicle: saline 103 % of control | dose: 100.0 mg/kg/injection, schedule: Q04DX003 (ip), vehicle: saline 101 % of control | dose: 200.0 mg/kg/injection, schedule: Q01DX009 (ip), vehicle: saline 96 % of control | dose: 200.0 mg/kg/injection, schedule: Q04DX003 (ip), vehicle: saline 98 % of control | dose: 400.0 mg/kg/injection, schedule: Q01DX009 (ip), vehicle: saline 101 % of control | dose: 400.0 mg/kg/injection, schedule: Q04DX003 (ip), vehicle: saline 95 % of control

CC(=O)Nc1nc(Cl)c2ncn(C3OC(COCc4ccccc4)C(OCc4ccccc4)C3OCc3ccccc3)c2n1 (stereo not given)
inactive: [7] 103 % of control | [8] 103 % of control | [9] 104 % of control

S=C(SNC1CCCCC1)SNC1CCCCC1
inactive: [1] 103 % of control | [7] 114 % of control | [2] 94 % of control | [8] 105 % of control | [3] 105 % of control | [9] 107 % of control

Cc1cccc(N=Cc2ccccc2O)c1
inactive: [6] 99 % of control | [10] 95 % of control | [4] 97 % of control | [11] 97 % of control | [5] 95 % of control | [12] 103 % of control

CC(=O)OC1(C[N+](=O)[O-])CCCCC1
inactive: dose: 50.0 mg/kg/injection, schedule: Q01DX001 (ip), vehicle: saline with Tween-80 93 % of control | dose: 100.0 mg/kg/injection, schedule: Q01DX001 (ip), vehicle: saline with Tween-80 101 % of control | dose: 200.0 mg/kg/injection, schedule: Q01DX001 (ip), vehicle: saline with Tween-80 101 % of control

C=CCc1ccc(OC(=O)Nc2ccc(S(=O)(=O)CC)cc2)c(OC)c1
inactive: [10] 90 % of control | [11] 93 % of control | [12] 93 % of control

O=C(NCCCCCCCNC(=O)Nc1ccc(C2=NCCN2)cc1)Nc1ccc(C2=NCCN2)cc1
inactive: dose: 62.0 mg/kg/injection, schedule: Q01DX Z (ip), vehicle: carboxymethylcellulose (CMC) 107 % of control | dose: 125.0 mg/kg/injection, schedule: Q01DX Z (ip), vehicle: carboxymethylcellulose (CMC) 98 % of control | dose: 250.0 mg/kg/injection, schedule: Q01DX Z (ip), vehicle: carboxymethylcellulose (CMC) 98 % of control
